Results on one compound are retold here after patent US12527755B2, “Formulations containing acetaminophen and sulfoalkyl ether cyclodextrin” (CyDex Pharmaceuticals, Inc., priority 2016, dated 2026).

In brackets after ≈: the same amount, converted by molar mass.

The series is described as follows: physchem. The following applies: for solubility: pH 7, aqueous buffer, thermodynamic from solid. As for the experimental part:
The acetaminophen solubility was measured at 25° C. and 5° C.

In turn, `CC(=O)Nc1ccc(O)cc1` [acetaminophen, N-acetyl-p-aminophenol] gave a solubility (5 °C) of roughly 8.86 mg/mL (≈ 58.6 mM) and a solubility (25 °C) of roughly 16 mg/mL (≈ 106 mM). Also, under “pH 7”, the “CAPTISOL® concentration with which a 10 mg/ml acetaminophen solution can be made” value is on record as “less than 0.05 M”.

Usually solubility stands for the concentration that dissolves in the medium under given conditions. Lower therefore signals little dissolved substance.
